test system: not listed separately; assay: Compound was tested for orally bioavailable in dogs with a half life of 0.7 hr; format: ADME, organism-based, Canis lupus familiaris; settings: dog, in vivo, po

Row | bioavailability [%] | Structure (SMILES)
1 | 10 | N#CC1=C(c2cccc3ccccc23)CN(C(=O)Cc2cncn2Cc2ccc(C#N)cc2)CC1

biological target: Geranylgeranyl transferase type I (Homo sapiens, UniProt P49354+P53609); assay: In vitro inhibition of geranylgeranyltransferase-1; format: protein-complex assay; settings: not given

Row | Structure (SMILES) | IC50 [nM]
2 | N#CC1=C(c2cccc3ccccc23)CN(C(=O)Cc2cncn2Cc2ccc(C#N)c(Cl)c2)CC1 | 1300
3 | Cn1cncc1C(NN1CCC(C#N)=C(c2cccc3ccccc23)C1)c1ccc(C#N)cc1 (stereo not drawn) | 600
4 | Cn1cncc1C(O)(CN1CCC(C#N)=C(c2cccc3ccccc23)C1)c1ccc(C#N)cc1 (stereo not drawn) | 540
5 | COC1=C(C#N)CCN(C(=O)Cc2cncn2Cc2ccc(C#N)c(-c3cccc4ccccc34)c2)C1 | 2700
6 | N#CC1=C(c2cccc3ccccc23)CN(C(=O)Cc2cncn2Cc2ccc(Cl)cc2)CC1 | > 10000
7 | Cn1cncc1C(c1ccc(C#N)cc1)N1CCC(C#N)=C(c2cccc3ccccc23)C1 (stereo not drawn) | 161000

The next lines start with the values.

Row | IC50 [nM] | Structure (SMILES)
8 | 1500 | Cn1cncc1CN(Cc1ccc(Cl)c(Cl)c1)C(=O)N1CCC(C#N)=C(c2cccc3ccccc23)C1
9 | 10000 | Cn1cncc1CN(Cc1cccc(C#N)c1)C(=O)N1CCC(C#N)=C(c2cccc3ccccc23)C1
10 | 1400 | Cn1cncc1CN(Cc1ccc(C#N)c(Br)c1)C(=O)N1CCC(C#N)=C(c2cccc3ccccc23)C1
11 | 1300 | N#CC1=C(c2cccc3ccccc23)CN(C(=O)CCc2cncn2Cc2ccc(C#N)cc2)CC1
12 | 1600 | CN(Cc1ccc(C#N)cc1)[C@H](Cc1cncn1C)C(=O)N1CCC(C#N)=C(c2cccc3ccccc23)C1
13 | 4500 | N#CC1=C(c2cccc3ccccc23)CN(C(=O)Cc2cncn2Cc2ccc(C#N)cc2)CC1
14 | 4000 | Cn1cncc1CN(Cc1ccc(C#N)cc1)C(=O)N1CCC(C#N)=C(c2cccc3ccccc23)C1

biological target: Protein farnesyltransferase (Mus musculus, UniProt Q61239+Q8K2I1); assay: Inhibition of Ras farnesylation in Human Ha-Ras oncogene-transformed BALB/c 3T3 cells (EJ3 cells); format: functional, cell-based; settings: not given

Row | Structure (SMILES) | EC50 [nM]
15 | N#CC1=C(c2cccc3ccccc23)CN(C(=O)Cc2cncn2Cc2ccc(C#N)c(Cl)c2)CC1 | > 100
16 | Cn1cncc1C(NN1CCC(C#N)=C(c2cccc3ccccc23)C1)c1ccc(C#N)cc1 (stereo not drawn) | 0.5
17 | Cn1cncc1C(O)(CN1CCC(C#N)=C(c2cccc3ccccc23)C1)c1ccc(C#N)cc1 (stereo not drawn) | 4
18 | COC1=C(C#N)CCN(C(=O)Cc2cncn2Cc2ccc(C#N)c(-c3cccc4ccccc34)c2)C1 | > 100
19 | N#CC1=C(c2cccc3ccccc23)CN(C(=O)Cc2cncn2Cc2ccc(Cl)cc2)CC1 | > 100
20 | Cn1cncc1C(c1ccc(C#N)cc1)N1CCC(C#N)=C(c2cccc3ccccc23)C1 (stereo not drawn) | 31

Next, values leading:

Row | EC50 [nM] | Structure (SMILES)
21 | > 1 | Cn1cncc1CN(Cc1ccc(C#N)c(Br)c1)C(=O)N1CCC(C#N)=C(c2cccc3ccccc23)C1
22 | 28 | N#CC1=C(c2cccc3ccccc23)CN(C(=O)CCc2cncn2Cc2ccc(C#N)cc2)CC1
23 | > 100 | CN(Cc1ccc(C#N)cc1)[C@H](Cc1cncn1C)C(=O)N1CCC(C#N)=C(c2cccc3ccccc23)C1
24 | 3.9 | N#CC1=C(c2cccc3ccccc23)CN(C(=O)Cc2cncn2Cc2ccc(C#N)cc2)CC1
25 | 97 | Cn1cncc1CN(Cc1ccc(C#N)cc1)C(=O)N1CCC(C#N)=C(c2cccc3ccccc23)C1

biological target: Protein farnesyltransferase (Homo sapiens, UniProt P49354+P49356); assay: In vitro inhibition of farnesyltransferase; format: protein-complex assay; settings: not given

Row | Structure (SMILES) | IC50 [nM]
26 | N#CC1=C(c2cccc3ccccc23)CN(C(=O)Cc2cncn2Cc2ccc(C#N)c(Cl)c2)CC1 | 15
27 | Cn1cncc1C(NN1CCC(C#N)=C(c2cccc3ccccc23)C1)c1ccc(C#N)cc1 (stereo not drawn) | 0.5
28 | Cn1cncc1C(O)(CN1CCC(C#N)=C(c2cccc3ccccc23)C1)c1ccc(C#N)cc1 (stereo not drawn) | 0.48
29 | COC1=C(C#N)CCN(C(=O)Cc2cncn2Cc2ccc(C#N)c(-c3cccc4ccccc34)c2)C1 | 1.4
30 | N#CC1=C(c2cccc3ccccc23)CN(C(=O)Cc2cncn2Cc2ccc(Cl)cc2)CC1 | 35
31 | Cn1cncc1C(c1ccc(C#N)cc1)N1CCC(C#N)=C(c2cccc3ccccc23)C1 (stereo not drawn) | 0.5

Now from value to compound:

Row | IC50 [nM] | Structure (SMILES)
32 | 20 | Cn1cncc1CN(Cc1ccc(Cl)c(Cl)c1)C(=O)N1CCC(C#N)=C(c2cccc3ccccc23)C1
33 | 59 | Cn1cncc1CN(Cc1cccc(C#N)c1)C(=O)N1CCC(C#N)=C(c2cccc3ccccc23)C1
34 | 3.1 | Cn1cncc1CN(Cc1ccc(C#N)c(Br)c1)C(=O)N1CCC(C#N)=C(c2cccc3ccccc23)C1
35 | 1.4 | N#CC1=C(c2cccc3ccccc23)CN(C(=O)CCc2cncn2Cc2ccc(C#N)cc2)CC1
36 | 0.92 | CN(Cc1ccc(C#N)cc1)[C@H](Cc1cncn1C)C(=O)N1CCC(C#N)=C(c2cccc3ccccc23)C1
37 | 3.5 | Cn1cncc1CN(Cc1ccc(C#N)cc1)C(=O)N1CCC(C#N)=C(c2cccc3ccccc23)C1

test system: not listed separately; assay: Compound was tested for orally bioavailable in dogs with a half life of 1.2h; format: ADME, organism-based, Canis lupus familiaris; settings: dog, in vivo, po

Row | bioavailability [%] | Structure (SMILES)
38 | 27 | Cn1cncc1C(NN1CCC(C#N)=C(c2cccc3ccccc23)C1)c1ccc(C#N)cc1 (stereo not drawn)
